Data on 70 molecules can be found in PubChem BioAssay AID504687 (Sanford-Burnham Center for Chemical Genomics, 2011).

The target of this assay is Ubiquitin-conjugating enzyme E2 N (Homo sapiens) (UniProt P61088). Put plainly: UBC13 polyubiquitin chain formation inhibitors, SAR follow-up, biochemical, TR-FRET (AID 504687). In general terms: Time-resolved FRET reads energy transfer from a long-lived donor to a nearby acceptor.

Several values for one entry are separate records, joined by “and”; a condition that tells them apart may be missing. Equal values may be shown once. Activity calls are given as the source filed them. The rule behind the calls is not given here.

Sequence of Ubiquitin-conjugating enzyme E2 N (Homo sapiens) (P61088 whole entry, looked up): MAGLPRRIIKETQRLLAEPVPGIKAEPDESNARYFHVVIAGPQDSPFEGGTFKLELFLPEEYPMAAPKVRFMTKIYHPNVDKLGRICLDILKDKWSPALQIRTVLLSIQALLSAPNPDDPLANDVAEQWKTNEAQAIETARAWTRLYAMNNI

Turning to `CCOc1ccc2nc(N(CCCN(C)C)C(=O)c3ccc(S(=O)(=O)N4CCc5ccccc5C4)cc3)sc2c1`, the concentration for half-maximal inhibition (IC50) – broadly, the concentration that gives 50% inhibition – was 3.19 µM.

On to `CCOc1cccc2sc(N(CCCN(C)C)C(=O)c3ccc(S(=O)(=O)N(C)Cc4ccccc4)cc3)nc12`, for which the IC50 is 4.3 µM.

`CCOc1cccc2sc(N(CCCN(C)C)C(=O)c3ccc(S(=O)(=O)N4CCc5ccccc5C4)cc3)nc12`: the half-maximal inhibitory concentration (IC50) was 4.1 µM.

For `O=C(NCC1CCN(Cc2cccc(Cl)c2)CC1)C1CCCN(c2ncnc3c2nc2n3CCCCC2)C1` (stereo not given), the IC50 was 0.93 µM.

As to `Cc1ccc2c(c1)C1CN(C)CCC1N2C(=O)CCCN1C(=O)c2cccc3cccc(c23)C1=O` (stereo not given), the half-maximal inhibitory concentration (IC50) is 3.92 µM.

For the molecule `CC(=O)c1ccc(OCC(O)CN2CCN(CCN3C(=O)c4cccc5cccc(c45)C3=O)CC2)cc1` (stereo not given), the half-inhibitory concentration (IC50) is 2.28 µM.

Regarding `O=C(CCCCCN1C(=O)c2ccccc2C1=O)NCCc1nc2ccccc2[nH]1`, the IC50 is 10.2 µM.

As to `CCOc1ccc2nc(N(CCCN(C)C)C(=O)c3ccc(C(=O)c4ccccc4)cc3)sc2c1`, the IC50 was 3.4 µM.

For the molecule `O=C(NCCCN1CCCCC1)C1CCN(c2ncnc3c2nc2n3CCCCC2)CC1`, the IC50 was 4.58 µM.

For `CC1CC(C)CN(C(=O)C2CCN(c3ncnc4c3nc3n4CCCCC3)CC2)C1` (stereo not given), the IC50 was > 100 µM (inactive).

For the molecule `COc1ccc(OC)c2sc(N(CCCN(C)C)C(=O)c3ccc(S(=O)(=O)N4CCc5ccccc5C4)cc3)nc12`, the half-maximal inhibitory concentration (IC50) was 0.79 µM.

Regarding `COc1ccc(NC(=O)CCCCCN2C(=O)c3cccc([N+](=O)[O-])c3C2=O)cc1`, the IC50 was > 100 µM (inactive).

As to `CN1CCN(CCCNC(=O)c2ccc(/C=C3\Oc4ccccc4N(Cc4ccc(Cl)cc4)C3=O)cc2)CC1`, the IC50 is 4.33 µM.

Regarding `COc1ccc2sc(N(CCCN(C)C)C(=O)c3ccc(S(=O)(=O)N(C)Cc4ccccc4)cc3)nc2c1`, the IC50 was 5.89 µM.

In the case of `CN(C)CCCn1c(SCC(=O)Nc2nc(-c3cccc(Br)c3)cs2)nc2ccccc2c1=O`, the IC50 was 4.18 µM.

`COc1ccc(-c2oc3ncnc(N)c3c2-c2ccccc2)cc1`: the IC50 is 2.06 µM.

With `Cc1cc(C)c2sc(N(CCCN(C)C)C(=O)c3ccc(S(=O)(=O)N(C)Cc4ccccc4)cc3)nc2c1`, the half-maximal inhibitory concentration (IC50) is 1.51 µM.

For the molecule `CC(C)(C)c1ccc(OCC(O)CN2CCN(CCN3C(=O)c4cccc5cccc(c45)C3=O)CC2)cc1` (stereo not given), the half-maximal inhibitory concentration (IC50) was 9.47 µM.

On to `O=C(CCCCCN1C(=O)c2ccccc2C1=O)NCc1ccccc1`, for which the IC50 is 15.8 µM.

Consider `O=C(c1ccco1)N1CCN(C(=O)C2CCN(c3ncnc4c3nc3n4CCCCC3)CC2)CC1`, for which the IC50 entry was “inactive”.

Consider `CCN(Cc1ccccc1)S(=O)(=O)c1ccc(C(=O)N(CCCN(C)C)c2nc3cc4c(cc3s2)OCCO4)cc1`, for which the IC50 was 1.51 µM.

For `COc1ccc(CCNC(=O)CCCCCN2C(=O)c3ccccc3C2=O)cc1OC`, the IC50 entry was “inactive”.

Take `Cc1ccc(-c2oc3ncnc(N)c3c2-c2ccc(C)cc2)cc1`: the IC50 was 2.7 µM.

For the molecule `Cc1ccc2nc(N(CCCN(C)C)C(=O)c3ccc4c(c3)CCCC4)sc2c1`, the IC50 was 10.5 µM.

In the case of `CN(C)CCCN(C(=O)c1ccc(C(=O)c2ccccc2)cc1)c1nc2cc3c(cc2s1)OCCO3`, the 50% inhibitory concentration (IC50) is 1.6 µM.

In the case of `O=C1c2cccc3cccc(c23)C(=O)N1CCN1CCN(CC(O)COc2ccc3ccccc3c2)CC1` (stereo not given), the IC50 is 1.35 µM.

As to `COc1ccc(COCC(O)CN2CCC(CN3C(=O)c4cccc5cccc(c45)C3=O)CC2)cc1OC` (stereo not given), the half-inhibitory concentration (IC50) is 5.6 µM.

With `Cc1cccc(C)c1NC(=O)Cn1c(=O)n(CCCC(=O)NC2CCN(Cc3ccccc3)CC2)c(=O)c2ccccc21`, the 50% inhibitory concentration (IC50) was 1.69 µM.

Take `Cc1ccccc1CN1CCC(CNC(=O)C2CCCN(c3ncnc4c3nc3n4CCCCC3)C2)CC1` (stereo not given): the IC50 was 4.69 µM.

In the case of `CN(C)CCCN(C(=O)c1ccc(S(=O)(=O)N2CCCCC2)cc1)c1nc2cc3c(cc2s1)OCO3`, the half-maximal inhibitory concentration (IC50) was 8.13 µM.

In the case of `COC(=O)C1=C(NC(=O)CCCCCN2C(=O)c3ccccc3C2=O)SC2CCCC12` (stereo not given), the IC50 was > 100 µM (inactive).

Turning to `CN(C)CCCN(C(=O)c1ccc(S(=O)(=O)N(C)Cc2ccccc2)cc1)c1nc2cc3c(cc2s1)OCO3`, the IC50 is 2.53 µM.

As to `O=C(CCCn1c(=O)c2ccccc2n(Cc2ccccc2F)c1=O)NC1CCN(Cc2ccccc2)CC1`, the IC50 was 0.45 µM.

In the case of `O=C(NCC1CCN(Cc2ccc(Cl)cc2)CC1)C1CCCN(c2ncnc3c2nc2n3CCCCC2)C1` (stereo not given), the IC50 is 4.33 µM.

As for `O=C1c2cccc3cccc(c23)C(=O)N1CCN1CCN(CC(O)COc2ccc3c(c2)OCO3)CC1` (stereo not given), the IC50 was 6.68 µM.

On to `CC1CCCC(C)N1CCCNC(=O)C1CCCN(c2ncnc3c2nc2n3CCCCC2)C1` (stereo not given), for which the IC50 is 12.3 µM.

On to `O=C(CCCCCN1C(=O)c2cccc([N+](=O)[O-])c2C1=O)NCc1ccccc1`, for which the IC50 was 16.4 µM.

On to `Cc1cc(C)cc(OCCNC(=O)CCCCCN2C(=O)c3ccccc3C2=O)c1`, for which the IC50 is > 100 µM (inactive).

With `O=C1c2cccc3cccc(c23)C(=O)N1CCN1CCN(CC(O)COCc2ccc(Cl)cc2)CC1` (stereo not given), the IC50 was 1.07 µM.

With `O=C(CCCn1c(=O)c2ccccc2n(Cc2cccc([N+](=O)[O-])c2)c1=O)NC1CCN(Cc2ccccc2)CC1`, the IC50 is 0.34 µM.

For the molecule `Cc1ccccc1OCC(O)CN1CCN(CCN2C(=O)c3cccc4cccc(c34)C2=O)CC1` (stereo not given), the 50% inhibitory concentration (IC50) is 12.8 µM.

In the case of `CC1CCCCN1C(=O)C1CCN(c2ncnc3c2nc2n3CCCCC2)CC1` (stereo not given), the IC50 result was “inactive”.

On to `Cc1ccccc1NC(=S)NC(=O)CCCCCN1C(=O)c2ccccc2C1=O`, for which the IC50 was > 100 µM (inactive).

In the case of `Cc1ccc(C)c(CN2CCC(CNC(=O)C3CCCN(c4ncnc5c4nc4n5CCCCC4)C3)CC2)c1` (stereo not given), the half-inhibitory concentration (IC50) was 3.42 µM.

Turning to `O=C(C1CCN(c2ncnc3c2nc2n3CCCCC2)CC1)N1CCN(c2ccccc2)CC1`, the IC50 entry was “inactive”.

For the molecule `O=C1c2cccc3cccc(c23)C(=O)N1CCN1CCN(CC(O)COc2ccc(Cl)cc2)CC1` (stereo not given), the half-maximal inhibitory concentration (IC50) was 0.9 µM.

Turning to `COc1ccc(C(=O)Nn2c(C)nc3ccccc3c2=O)cc1`, the 50% inhibitory concentration (IC50) is 2.36 µM.

`O=C(CCCCCN1C(=O)c2ccccc2C1=O)NCc1ccccn1`: the IC50 entry was “inactive”.

For the molecule `CCc1ccc2nc(N(CCCN(C)C)C(=O)c3ccc(S(=O)(=O)N4CCc5ccccc5C4)cc3)sc2c1`, the concentration for half-maximal inhibition (IC50) was 2.8 µM.

`O=C(CCCCCN1C(=O)c2ccccc2C1=O)NCc1ccco1`: the IC50 is 18.1 µM.

In the case of `COc1cccc(NC(=O)CCCCCN2C(=O)c3cccc([N+](=O)[O-])c3C2=O)c1`, the IC50 was > 100 µM (inactive).

On to `CCOC(=O)c1c(NC(=O)COc2ccccc2C#N)sc2c1CC(C)(C)NC2(C)C`, for which the concentration for half-maximal inhibition (IC50) is 2.35 µM.

As for `O=C(CCCCCN1C(=O)c2cccc3cccc(c23)C1=O)NCc1cccnc1`, the half-inhibitory concentration (IC50) was 5.08 µM.

As to `O=C(c1ccc(S(=O)(=O)N2CCCC2)cc1)N1CCC(CN2C(=O)c3cccc4cccc(c34)C2=O)CC1`, the IC50 was 4.19 µM.

As to `COc1cc(/C=C/c2cc[n+](C)cc2)ccc1OCC(=O)Nc1ccc(Cl)c(Cl)c1`, the IC50 was 3.5 µM.

Take `COCCOC(=O)c1ccc(NC(=O)CCCCCN2C(=O)c3ccccc3C2=O)cc1`: the IC50 is > 100 µM (inactive).

Consider `COc1cc2nc(N(CCCN(C)C)C(=O)c3ccc(S(=O)(=O)N4CCc5ccccc5C4)cc3)sc2cc1OC`, for which the half-maximal inhibitory concentration (IC50) was 3.79 µM.

With `Cc1cccc(OCC(O)CN2CCN(CCN3C(=O)c4cccc5cccc(c45)C3=O)CC2)c1C` (stereo not given), the half-maximal inhibitory concentration (IC50) is 4.76 µM.

As for `COc1cccc2sc(N(CCCN(C)C)C(=O)c3ccc(S(=O)(=O)N4CCc5ccccc5C4)cc3)nc12`, the IC50 was 1.85 µM.

As to `CN(C)CCCN(C(=O)c1ccc(S(=O)(=O)N2CCCCCC2)cc1)c1nc2cc3c(cc2s1)OCCO3`, the IC50 is 2.12 µM.

With `COc1cccc(OCC(O)CN2CCN(CCN3C(=O)c4cccc5cccc(c45)C3=O)CC2)c1` (stereo not given), the IC50 is 9.98 µM and 9.03 µM.

`O=C(CCCCCN1C(=O)c2ccccc2C1=O)N1CCN(c2ccc([N+](=O)[O-])cc2)CC1`: the IC50 is > 100 µM (inactive).

In the case of `O=C(C1CCN(c2ncnc3c2nc2n3CCCCC2)CC1)N1CCN(Cc2ccccc2)CC1`, the half-inhibitory concentration (IC50) was 6.45 µM.

`CC(=O)c1ccccc1OCC(O)CN1CCN(CCN2C(=O)c3cccc4cccc(c34)C2=O)CC1` (stereo not given): the IC50 is 10.5 µM.

`O=C(CCCCCN1C(=O)c2ccccc2C1=O)Nc1nc(C2CC2)cs1`: the IC50 was > 100 µM (inactive).

With `CN(C)CCCN(C(=O)c1ccc2c(c1)CCCC2)c1nc2ccc(Cl)cc2s1`, the IC50 is 10.7 µM.

Turning to `CN(C)CCCN(C(=O)c1ccc(S(=O)(=O)N2CCCC2)cc1)c1nc2ccc(Br)cc2s1`, the half-maximal inhibitory concentration (IC50) is 6.86 µM.

With `CC(NC(=O)CCCCCN1C(=O)c2cccc([N+](=O)[O-])c2C1=O)c1ccccc1` (stereo not given), the IC50 result is “inactive”.

For `CCc1ccc(OCC(O)CN2CCC(CN3C(=O)c4cccc5cccc(c45)C3=O)CC2)cc1` (stereo not given), the 50% inhibitory concentration (IC50) was 8.76 µM.

On to `CCC1CCCCN1CCCNC(=O)C1CCN(c2ncnc3c2nc2n3CCCCC2)CC1` (stereo not given), for which the IC50 was 7.28 µM.
